Data on 3 compounds can be found in patent US11807647B2, “Crystal form of hepatitis B surface antigen inhibitor and application thereof” (FUJIAN AKEYLINK BIOTECHNOLOGY CO., LTD., priority 2019, dated 2023).

The test system of data set [1] is hepatitis B surface antigen (HBsAg). The experiment in a line: In vitro HBV activity test, hepatitis B virus S antigen by ELISA in HepG2.2.15 cells. It counts as cell-based. As to the method: (§1) 1. Cell Lines: HepG2.2.15 Cells
(§2) 2. Reagents: • Pancreatin (Invitrogen-25300062) • DPBS (Corning-21031CVR) • Dimethyl sulfoxide (Sigma-D2650-100 ML) • High-throughput DNA purification kit (QIAamp 96 DNA Blood Kit, Qiagen-51162) • Quantitative faststart universal probe reagent (FastStart Universal Probe Master, Roche-04914058001) • Hepatitis B surface antigen quantitative detection kit (Autobio, CL 0310) • 3. Consumables and Instruments • 96-well cell culture plate (Corning-3599) • CO2 incubator (HERA-CELL-240) • Optical sealing film (ABI-4311971) • Quantitative PCR 96-well plate (Applied Biosystems-4306737) • Fluorescence quantitative PCR instrument (Applied Biosystems-7500 real time PCR system)
(§3) 1. HepG2.2.15 cells (4×10^4 cells/well) were seeded to a 96-well plate and incubated overnight at 37° C., 5% CO2.
2. […]
6.3 Determination of the content of hepatitis B virus S antigen by ELISA involve respectively adding 50 μl of samples and standards to a reaction plate, and then adding 50 μL of enzyme conjugate to each well; shaking same to mix uniformly, and incubating at 37° C. for 60 minutes; washing the plate 5 times with a washing solution, adding 50 μL of luminescent substrate to each well, mixing uniformly, and reacting same in the dark at room temperature for 10 minutes; and finally, detecting chemiluminescence intensity with a microplate reader. […]

In a further data set the test system is HBV-DNA. Nature of the data set: In vitro HBV activity test, HBV-DNA by quantitative PCR in HepG2.2.15 cells. Format: cell-based, Hepatitis B Virus. As to the method:
as §1, §2, §3
2. On day 2, the compound was diluted to a total of 8 concentrations, with a 3-fold gradient dilution. The compounds at different concentrations were added to culture wells in duplicate. The final concentration of dimethyl sulfoxide in the culture medium was 0.5%. 10 μM ETV was used as 100% inhibition control; 0.5% dimethyl sulfoxide was used as a 0% inhibition control.
3. On day 5, the culture medium was replaced with a fresh culture medium containing the compound.
4. […]

Another data set relates to hepatitis B. Conditions: woodchuck model, used as a single drug; cited from earlier work.
A short description of data set [2]: Stability test of crystal form A as a solid under high temperature and high humidity conditions. It counts as physicochemical. Conditions: 40° C./75% humidity. As to the method:
2 samples of crystal form A of the compound of formula (I) were weighed in parallel (about 100 mg each), placed on the bottom of glass sample bottles, and spread out as a thin layer. The bottles were sealed with aluminum foil paper, and some small holes were made on the aluminum foil paper to ensure that the samples could fully contact with ambient air. The bottles were placed in a constant temperature and humidity chamber at 40° C./75% humidity. The samples placed under the above-mentioned conditions were sampled and tested on day 5 and day 10. The test results were compared with initial test results on day 0.

A short description of data set [3]: Physical stability test of crystal form A as a solid under various temperature, humidity and light conditions. It counts as physicochemical. As to the method: 4 samples of crystal form A of the compound of formula (I) were weighed in parallel (about 100 mg each), placed on the bottom of glass sample bottles, and spread out as a thin layer. The bottles were sealed with aluminum foil paper, and some small holes were made on the aluminum foil paper to ensure that the samples could fully contact with ambient air. The prepared 4 samples were placed under a relative humidity of 25° C./92.5%, 60° C., 40° C./75% and light conditions, respectively, to investigate the physical stability of the samples on day 10. In addition, about 100 mg of crystal form A solid of the compound of formula (I) was separately weighed, placed at the bottom of a glass sample bottle, sealed with a screw cap and stored at −20° C. for use as a control sample. On day 10, all samples were taken out, returned to room temperature, and observed for appearance changes, and the crystal forms of the samples were detected by XRPD. By comparing an accelerated sample with the control sample, the physical stability of crystal form A of the compound of formula (I), as a solid, was determined.

Setting [4] is: 25° C./92.5% relative humidity (open), Day 10.
The mark [5] stands for this setting: 40° C./75% relative humidity (open), Day 10.
[6] abbreviates: Day 0 (−20° C. storage with seal) (control sample), time point Day 10.

`COCCCOc1cc2c(cc1Cl)-c1cc(=O)c(C(=O)O)cn1[C@H](c1cccs1)O2` [Compound of formula (I)]: the “inhibition of hepatitis B surface antigen (HBsAg) (experimental conclusion)” value in data set [1] (HepG2.2.15 cells) was “effectively inhibit”. The EC50 came out at 1.54 nM in data set [1] (Hepatitis B virus, HepG2.2.15, 192 h, read-out: HBsAg EC50) and 1.13 nM in the data set with HBV-DNA (Hepatitis B virus, 192 h, culture medium collected on day 8). For the same compound, the “inhibition of HBV-DNA (experimental conclusion)” value in the data set with HBV-DNA is listed as “effectively inhibit”.

For `COCCCOc1cc2c(cc1OC)-c1cc(=O)c(C(=O)O)cn1[C@H](C(C)C)C2` [RG7834], in the data set with hepatitis B, the “reduction of HBV-DNA” value was 1.7 Log and the “reduction of surface antigens” value is 2.57 Log.

For the compound `COCCCOc1cc2c(cc1Cl)-c1cc(=O)c(C(=O)O)cn1[C@H](c1cccs1)O2` [crystal form A], the Appearance entry in data set [2] (day 0 (initial)), in data set [2] (day 5) and in data set [2] (day 10) was “White powder” each time. Moreover, the Polymorph result in data set [2] (day 0 (initial)) was “Polymorph A”; in data set [2] (day 5), “Polymorph A”; in data set [2] (day 10), “Polymorph A”; in data set [3] (setting [4]), “Polymorph A”; in data set [3] (setting [5]) it was “Polymorph A”; in data set [3] (60° C. (open), Day 10), “Polymorph A”. Further, the Polymorph result in data set [3] (setting [6]) is reported as “Polymorph A”; in data set [3] (Light, Day 10), “Polymorph A”. Besides, the Purity turned out to be 99.79% in data set [2] (day 0 (initial)); 99.79% in data set [2] (day 5); 99.79% in data set [2] (day 10); 99.80% in data set [3] (setting [4]); 99.79% in data set [3] (setting [5]); 99.75% in data set [3] (60° C. (open), Day 10). The Purity is 99.79% in data set [3] (setting [6]) and 99.71% in data set [3] (Light, Day 10). For the same compound, the Total impurities in data set [2] (day 0 (initial)), in data set [2] (day 5) and in data set [2] (day 10) was 0.21% each time. Further, the “stability (experimental conclusion)” value in data set [2] (solid, up to day 10) is “good stability”; in data set [3] (solid, various temperature, humidity and light conditions, day 10), “good stability”. In addition, the Character result in data set [3] (setting [4]) is “White powder”; in data set [3] (setting [5]) it was “White powder”; in data set [3] (60° C. (open), Day 10), “White powder”; in data set [3] (setting [6]) it was “White powder”; in data set [3] (Light, Day 10) it was “White powder”.
